From the NIST ThermoML archive (doi:10.1016/j.tca.2014.07.022)
± gives the expanded uncertainty stated by the source.

Experiments:
[1] = xn = mol fraction of the nth substance listed; settings: 100 kPa, Liquid; for viscosity: Concentric cylinders viscometry; for mass density: Vibrating tube method
[2] = 100 kPa, Liquid; for viscosity: Concentric cylinders viscometry; for mass density: Vibrating tube method

## CCC(C)O (stereo not drawn) [butan-2-ol] + CC(=O)CC(C)C
[1]; 293.15 K, x2 = 0
  viscosity: 3.67 ± 0.077 mPa·s
  mass density: 806.7 ± 0.3 kg/m3
[1]; 298.15 K, x2 = 0
  viscosity: 3.04 ± 0.064 mPa·s
  mass density: 802.7 ± 0.3 kg/m3
[1]; 303.15 K, x2 = 0
  viscosity: 2.54 ± 0.053 mPa·s
  mass density: 798.4 ± 0.3 kg/m3
[1]; 308.15 K, x2 = 0
  viscosity: 2.128 ± 0.045 mPa·s
  mass density: 794.1 ± 0.3 kg/m3
[1]; 313.15 K, x2 = 0
  viscosity: 1.805 ± 0.038 mPa·s
  mass density: 789.8 ± 0.3 kg/m3
[1]; 318.15 K, x2 = 0
  viscosity: 1.538 ± 0.033 mPa·s
  mass density: 785.2 ± 0.3 kg/m3
[1]; 323.15 K, x2 = 0
  viscosity: 1.325 ± 0.028 mPa·s
  mass density: 780.6 ± 0.3 kg/m3

## CC(=O)CC(C)C [4-methylpentan-2-one] + CCCC(C)O
[1]; 293.15 K, x1 = 1
  viscosity: 0.588 ± 0.013 mPa·s
  mass density: 800.8 ± 0.3 kg/m3
[1]; 298.15 K, x1 = 1
  viscosity: 0.554 ± 0.013 mPa·s
  mass density: 796.1 ± 0.3 kg/m3
[1]; 303.15 K, x1 = 1
  viscosity: 0.523 ± 0.012 mPa·s
  mass density: 791.6 ± 0.3 kg/m3
[1]; 308.15 K, x1 = 1
  viscosity: 0.493 ± 0.011 mPa·s
  mass density: 786.9 ± 0.3 kg/m3
[1]; 313.15 K, x1 = 1
  viscosity: 0.463 ± 0.011 mPa·s
  mass density: 782.3 ± 0.3 kg/m3
[1]; 318.15 K, x1 = 1
  viscosity: 0.437 ± 0.01 mPa·s
  mass density: 777.6 ± 0.3 kg/m3
[1]; 323.15 K, x1 = 1
  viscosity: 0.41 ± 0.01 mPa·s
  mass density: 773 ± 0.3 kg/m3

## CC(C)O [propan-2-ol]
[2]; 293.15 K
  viscosity: 2.417 ± 0.051 mPa·s
  mass density: 785.4 ± 0.3 kg/m3
[2]; 298.15 K
  viscosity: 2.083 ± 0.044 mPa·s
  mass density: 781.1 ± 0.3 kg/m3
[2]; 303.15 K
  viscosity: 1.8 ± 0.038 mPa·s
  mass density: 776.8 ± 0.3 kg/m3
[2]; 308.15 K
  viscosity: 1.561 ± 0.033 mPa·s
  mass density: 772.4 ± 0.3 kg/m3
[2]; 313.15 K
  viscosity: 1.359 ± 0.029 mPa·s
  mass density: 768 ± 0.3 kg/m3
[2]; 318.15 K
  viscosity: 1.189 ± 0.025 mPa·s
  mass density: 763.4 ± 0.3 kg/m3
[2]; 323.15 K
  viscosity: 1.047 ± 0.023 mPa·s
  mass density: 758.8 ± 0.3 kg/m3

## CC(C)O [propan-2-ol] + CC(=O)CC(C)C
[1]; 293.15 K, x2 = 0
  viscosity: 2.417 ± 0.051 mPa·s
  mass density: 785.4 ± 0.3 kg/m3
[1]; 298.15 K, x2 = 0
  viscosity: 2.083 ± 0.044 mPa·s
  mass density: 781.1 ± 0.3 kg/m3
[1]; 303.15 K, x2 = 0
  viscosity: 1.8 ± 0.038 mPa·s
  mass density: 776.8 ± 0.3 kg/m3
[1]; 308.15 K, x2 = 0
  viscosity: 1.561 ± 0.033 mPa·s
  mass density: 772.4 ± 0.3 kg/m3
[1]; 313.15 K, x2 = 0
  viscosity: 1.359 ± 0.029 mPa·s
  mass density: 768 ± 0.3 kg/m3
[1]; 318.15 K, x2 = 0
  viscosity: 1.189 ± 0.025 mPa·s
  mass density: 763.4 ± 0.3 kg/m3
[1]; 323.15 K, x2 = 0
  viscosity: 1.047 ± 0.023 mPa·s
  mass density: 758.8 ± 0.3 kg/m3

## CCCC(C)O (stereo not drawn) [pentan-2-ol]
[2]; 293.15 K
  viscosity: 3.974 ± 0.083 mPa·s
  mass density: 809.3 ± 0.3 kg/m3
[2]; 298.15 K
  viscosity: 3.277 ± 0.069 mPa·s
  mass density: 805.3 ± 0.3 kg/m3
[2]; 303.15 K
  viscosity: 2.717 ± 0.057 mPa·s
  mass density: 801.2 ± 0.3 kg/m3
[2]; 308.15 K
  viscosity: 2.282 ± 0.048 mPa·s
  mass density: 797 ± 0.3 kg/m3
[2]; 313.15 K
  viscosity: 1.931 ± 0.041 mPa·s
  mass density: 792.7 ± 0.3 kg/m3
[2]; 318.15 K
  viscosity: 1.647 ± 0.035 mPa·s
  mass density: 788.4 ± 0.3 kg/m3
[2]; 323.15 K
  viscosity: 1.419 ± 0.03 mPa·s
  mass density: 784 ± 0.3 kg/m3

## CC(=O)CC(C)C [4-methylpentan-2-one]
[2]; 293.15 K
  viscosity: 0.588 ± 0.013 mPa·s
  mass density: 800.8 ± 0.3 kg/m3
[2]; 298.15 K
  viscosity: 0.554 ± 0.013 mPa·s
  mass density: 796.1 ± 0.3 kg/m3
[2]; 303.15 K
  viscosity: 0.523 ± 0.012 mPa·s
  mass density: 791.6 ± 0.3 kg/m3
[2]; 308.15 K
  viscosity: 0.493 ± 0.011 mPa·s
  mass density: 786.9 ± 0.3 kg/m3
[2]; 313.15 K
  viscosity: 0.463 ± 0.011 mPa·s
  mass density: 782.3 ± 0.3 kg/m3
[2]; 318.15 K
  viscosity: 0.437 ± 0.01 mPa·s
  mass density: 777.6 ± 0.3 kg/m3
[2]; 323.15 K
  viscosity: 0.41 ± 0.01 mPa·s
  mass density: 773 ± 0.3 kg/m3

## CCC(C)O (stereo not drawn) [butan-2-ol]
[2]; 293.15 K
  viscosity: 3.67 ± 0.077 mPa·s
  mass density: 806.7 ± 0.3 kg/m3
[2]; 298.15 K
  viscosity: 3.04 ± 0.064 mPa·s
  mass density: 802.7 ± 0.3 kg/m3
[2]; 303.15 K
  viscosity: 2.54 ± 0.053 mPa·s
  mass density: 798.4 ± 0.3 kg/m3
[2]; 308.15 K
  viscosity: 2.128 ± 0.045 mPa·s
  mass density: 794.1 ± 0.3 kg/m3
[2]; 313.15 K
  viscosity: 1.805 ± 0.038 mPa·s
  mass density: 789.8 ± 0.3 kg/m3
[2]; 318.15 K
  viscosity: 1.538 ± 0.033 mPa·s
  mass density: 785.2 ± 0.3 kg/m3
[2]; 323.15 K
  viscosity: 1.325 ± 0.028 mPa·s
  mass density: 780.6 ± 0.3 kg/m3
